Data on one molecule can be found in PMC5529018, “Discovery of novel brain permeable and G protein-biased beta-1 adrenergic receptor partial agonists for the treatment of neurocognitive disorders” (PLoS ONE, 2017).

In general, Cmax refers to the highest concentration seen after dosing. For orientation: Ki means the dissociation constant of the complex between target and ligand, obtained from inhibition or displacement.

Series [1] can be described thus: Pharmacokinetic study 1, 4-hr time course. Particulars: rat; for AUCinf / Cmax: 10 mg/kg PO. In kind it is in vivo, Sprague-Dawley rats. The source says: (§1) Two cohorts of Sprague-Dawley rats were used in two independent studies. All animals were fasted overnight before the experiment with free access to water. In study 1, a total of 18 rats were used for a 4 hr time course pharmacokinetic (PK) study. Rats were anesthetized with 3% isoflurane and catheters were implanted into the jugular and/or portal veins for compound administration and/or blood sampling at 1 to 2 days prior to the experiments as previously described. […] Four hours post-dose, rats were deeply anesthetized with isoflurane and blood samples were collected by cardiac puncture. In study 2, a total of 18 rats were used for a 20 min post-dose collection study. […] At 20 min post-dose, rats were deeply anesthetized with isoflurane and blood samples were collected by cardiac puncture. Brains were collected after perfusion with phosphate buffered saline. All plasma samples were immediately separated after collection by centrifugation (11,000 rpm for 3 minutes) and stored at −80°C until analysis. […] Tulobuterol was used as the internal standard. The flow rate was set to 0.45 ml/min. Column temperature was 25°C. […] The injection volume was 20 μl. The mass spectrometer was operated in the positive mode with multiple-reaction monitoring (MRM). […] Mobile phase A consisted of 10 mM ammonium acetate and 0.1% formic acid in LCMS grade water. Mobile phase B consisted of 10 mM ammonium acetate and 0.1% formic acid in LCMS grade acetonitrile:water 90:10% (v/v). […] Five μl of the extracted samples were injected. […] Data acquisition and analysis were performed using the Analyst 1.6.1 software (AB SCIEX, CA).

Series [2] can be described thus: Pharmacokinetic study 2, 20-min post-dose collection. In kind it is in vivo, Sprague-Dawley rats. The following applies: Sprague-Dawley, brain, rat, single administration.
Excerpt: as §1

The next series concerns the target ADRB3 (Homo sapiens, UniProt P13945). Put plainly: Radioligand binding ADRB3. Particulars: S2 Table; hot ligand [3H]CGP12177; read-out: Binding Affinity Ki.
The next series addresses 5-HT 1A (Homo sapiens, UniProt P08908). Nature of the series: Radioligand binding 5-HT 1A. The following applies: S2 Table; hot ligand [3H]8-OH-DPAT; read-out: Binding Affinity Ki.
Series [3] relates to PBR (peripheral benzodiazepine receptor). Put plainly: Radioligand binding PBR. Particulars: S2 Table; hot ligand [3H]PK11195.
The next series concerns the target Sigma 1 receptor (Homo sapiens, UniProt Q99720). Put plainly: Radioligand binding Sigma 1 receptor. Particulars: S2 Table; hot ligand [3H]Pentazocine(+); read-out: Binding Affinity Ki.

Sequence of Sigma 1 receptor (Q99720 whole entry, species assumed): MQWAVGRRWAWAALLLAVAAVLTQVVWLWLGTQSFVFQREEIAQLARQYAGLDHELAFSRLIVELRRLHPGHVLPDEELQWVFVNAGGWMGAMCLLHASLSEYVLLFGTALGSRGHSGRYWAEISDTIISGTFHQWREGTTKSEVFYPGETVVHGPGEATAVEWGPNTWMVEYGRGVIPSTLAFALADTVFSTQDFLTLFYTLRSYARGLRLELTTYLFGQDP
Sequence of 5-HT 1A (P08908 whole entry, species assumed): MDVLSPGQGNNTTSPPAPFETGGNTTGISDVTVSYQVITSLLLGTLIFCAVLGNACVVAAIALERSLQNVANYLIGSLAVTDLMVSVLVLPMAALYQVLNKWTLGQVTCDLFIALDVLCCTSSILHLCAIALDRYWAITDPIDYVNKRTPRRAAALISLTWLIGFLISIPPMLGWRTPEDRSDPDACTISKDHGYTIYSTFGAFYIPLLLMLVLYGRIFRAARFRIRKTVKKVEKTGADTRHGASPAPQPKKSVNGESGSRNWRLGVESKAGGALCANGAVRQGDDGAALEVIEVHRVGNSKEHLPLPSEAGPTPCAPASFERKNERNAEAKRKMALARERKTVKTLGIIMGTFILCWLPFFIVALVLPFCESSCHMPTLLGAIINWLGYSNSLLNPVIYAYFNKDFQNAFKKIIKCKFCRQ
Sequence of ADRB3 (P13945 whole entry): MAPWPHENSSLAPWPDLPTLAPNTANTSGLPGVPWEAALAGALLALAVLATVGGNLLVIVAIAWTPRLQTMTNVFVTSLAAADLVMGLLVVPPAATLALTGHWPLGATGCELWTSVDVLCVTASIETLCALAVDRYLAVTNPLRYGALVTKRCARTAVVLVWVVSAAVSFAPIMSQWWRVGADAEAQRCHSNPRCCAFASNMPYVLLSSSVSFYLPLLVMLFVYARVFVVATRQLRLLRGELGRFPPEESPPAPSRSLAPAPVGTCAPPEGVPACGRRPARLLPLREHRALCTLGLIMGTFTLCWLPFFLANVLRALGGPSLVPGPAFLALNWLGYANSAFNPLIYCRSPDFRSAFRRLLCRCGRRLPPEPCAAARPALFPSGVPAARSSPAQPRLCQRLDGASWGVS

Regarding `COc1ccccc1OCCNC[C@H](O)COc1ccc(O)cc1.COc1ccccc1OCCNC[C@H](O)COc1ccc(O)cc1.O=C(O)/C=C/C(=O)O` [STD-101-D1, (S)-4-(2-hydroxy-3-((2-(2-methoxyphenoxy)ethyl)amino)propoxy)phenol hemifumarate], the “time post-dose at which Cmax was achieved” value in series [1] (10 mg/kg IP, systemic plasma) amounted to 90 min. The AUCinf was 362 ± 367 ng·h/mL in series [1] (portal vein plasma) and 101 ± 29 ng·h/mL in series [1] (systemic (jugular vein) plasma). The figures for the Cmax in series [1] (portal vein plasma) and in series [1] (systemic (jugular vein) plasma) were 946 ± 867 ng/mL and 116 ± 78 ng/mL, respectively. Further, the concentration at 20 min in series [2] (ip, 10 mg/kg intraperitoneally) was 288 nM; in series [2] (iv, 10 mg/kg intravenously) it was 2500 nM. The Ki at ADRB3 was found to be 485 nM; on 5-HT 1A, 11 nM; on Sigma 1 receptor, 146 nM. In series [3], the “Binding Affinity Ki” value is reported as “- (< 50% inhibition of radioligand binding at 10 μM STD-101-D1)”.
